# Source: patent publication US20230212517A1, “METHODS FOR GENERATING HEMATOPOIETIC STEM CELLS” (The Brigham and Women's Hospital, Inc., priority 2018, published 2023)
# “Also recorded” adds a separate entry of the source.
# Tests used:
# [1] = test system: Dnmt3a; assay: Dnmt3a protein level in nuclear fractions of E11.5 AGM cells (EPIQUIK assay kit); type: cell-based, mouse; conditions: nuclear fractions of treated E11.5 AGM cells
# Experimental: RNA-sequencing analyses were performed to measure gene expression patterns in mouse AGM treated with cyclic strain or pharmacological modulators. Using computational algorithms, hierarchical clustering was performed of differentially expressed genes as well as measured their overrepresented biological processes and pathways. Gene expression clusters of differentially expressed genes were analyzed and their mean expression level across cell populations compared. Next, Venn comparison of up- and down-genes was constructed to analyze candidate(s) important for cyclic strain- or pharmacological modulator(s)-mediated the endothelial-to-HSC transition. Furthermore, Dnmt3b and Dnmt3a protein expressions were analyzed in nuclear fractions of mouse AGM cells using EPIQUIK methyltransferase assay kits. Data are presented as mean±s.d. unless otherwise noted. Statistical analyses were performed by paired or un-paired Student's t-tests. Significance was set at P<0.05.
# Nuclear extracts from AGM explants were harvested using an EPIQUIK Nuclear Extraction Kit (Epigentek Group Inc.). Dnmt3b and Dnmt3a protein levels were analyzed using a colorimetric EPIQUIK methyltransferase Assay Kit (Epigentek Group Inc.), according to the manufacturer's instructions. Concentration of Dnmt3b and Dnmt3a is relative to 1 μg of nuclear extract proteins.
# [2] = test system: bone marrow-derived Gr1+Mac1+ sorted (donor) neutrophils; assay: ELISA quantification of myeloperoxidase (MPO) in donor neutrophils of primary transplant; type: in vivo, mouse; conditions: overnight culture; primary transplant of treated E11.5 AGM
# Experimental: Pulsating blood vessels like conditions were stimulated in vitro using FLEXCELL FX-4000 cell stretching bioreactor machine. To analyze roles of pharmacological targets in regulating the endothelial-to-HSC transition, mouse embryo-derived AGM or whole mouse embryo were exposed ex vivo with biomechanical stretching, chemicals, or drugs. Next, hematopoietic colony formation assays were performed by incubating mouse AGM-derived cells in StemCell M3434 media for seven days. Serial transplantation of AGM-derived HSCs in lethally irradiated SJL mice were performed. The stem cell frequency upon biomechanical stretching was analyzed using a limiting dilution assay. To characterize properties of AGM-HSC-derived blood cells in primary transplants, percentage chimerism and reconstitution was measured using FACS, globin transcripts were analyzed using quantitative reverse transcriptase-PCR, myeloperoxidase amount was measured using PICOKINE ELISA kit, TCR-β rearrangement was analyzed using PCR for TCR-β locus, pre-immune IG detection was analyzed using Thermo-Fisher Mouse Ig Isotyping kit, and delayed-type hypersensitivity was analyzed by injecting sheep RBC (Rockland Immunochemicals) in the footpad of pre-sensitized mice. […]
# [3] = test system: bone marrow-derived Cd71+ Ter119+ sorted (donor) erythroid cells; assay: qRT-PCR of globin transcripts in donor erythroid cells of primary transplant; type: in vivo, mouse; conditions: primary transplant of treated E11.5 AGM
# Experimental: Pulsating blood vessels like conditions were stimulated in vitro using FLEXCELL FX-4000 cell stretching bioreactor machine. To analyze roles of pharmacological targets in regulating the endothelial-to-HSC transition, mouse embryo-derived AGM or whole mouse embryo were exposed ex vivo with biomechanical stretching, chemicals, or drugs. Next, hematopoietic colony formation assays were performed by incubating mouse AGM-derived cells in StemCell M3434 media for seven days. Serial transplantation of AGM-derived HSCs in lethally irradiated SJL mice were performed. The stem cell frequency upon biomechanical stretching was analyzed using a limiting dilution assay. To characterize properties of AGM-HSC-derived blood cells in primary transplants, percentage chimerism and reconstitution was measured using FACS, globin transcripts were analyzed using quantitative reverse transcriptase-PCR, myeloperoxidase amount was measured using PICOKINE ELISA kit, TCR-β rearrangement was analyzed using PCR for TCR-β locus, pre-immune IG detection was analyzed using Thermo-Fisher Mouse Ig Isotyping kit, and delayed-type hypersensitivity was analyzed by injecting sheep RBC (Rockland Immunochemicals) in the footpad of pre-sensitized mice.
# FACS was used to sort erythroid precursors (Cd45.2^+, Ter119^+, Cd71^+) from the unlysed bone marrow isolated from AGM-transplanted mice. […]
compound,measurement,setting,value
"Clc1cccc(Cl)c1CSc1nnc(-c2cnccn2)s1 [Yoda1, 2-[5-[[(2,6-Dichlorophenyl)methyl]thio]-1,3,4-thiadiazol-2-yl]-pyrazine]",Dnmt3a protein expression level,[1],not Dnmt3a; also recorded: without impacting the expression of Dnmt3a
same,myeloperoxidase (MPO) level of donor neutrophils,[2],reconstitute to functional myeloid cells displaying sufficient MPO levels
same,"hemoglobin type (β-major adult, εγ and β-H1 embryonic) expressed in donor erythroid cells",[3],reconstitutes to red cells containing adult hemoglobin
